In patent US12421225B2, “Heteroaromatic amide derivative and medicament containing the same” (KAKEN PHARMACEUTICAL CO., LTD., priority 2018, dated 2025):

Experiments:
[1] = biological target: human Nav1.7 (Homo sapiens (Human), UniProt Q15858); experiment: Human Nav1.7 inhibitory activity evaluation (automated patch clamp QPatch16X, HEK293A cells stably expressing human Nav1.7 and human Navβ1); format: cell-based
Method in brief: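 QPatch16X whole-cell recordings at room temperature from HEK293A cells stably expressing human Nav1.7 with Navβ1, CsF-based internal solution, pH 7.4 external, 0.1% DMSO. From −100 mV holding, protocol included a 15 s hold at a potential inactivating ~30-40% of channels; IC50 from inward current at the second −10 mV pulse.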

[2] = biological target: human Nav1.5 (Homo sapiens (Human), UniProt Q14524); experiment: Human Nav1.5 inhibitory activity evaluation (automated patch clamp QPatch16X, HEK293 cells stably expressing human Nav1.5); format: cell-based
Method in brief: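 Whole-cell automated patch clamp at room temperature on HEK293 stably expressing human Nav1.5; holding −80 mV, 20 consecutive cardiomyocyte action-potential-like test pulses before and after compound (0.1% DMSO). Inhibition measured on inward current at 20th pulse; IC50 from concentration-response curve.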

[3] = HEK293A cells stably expressing human Nav1.7 and human Navβ1, automated patch clamp QPatch16X
[4] = HEK293 cells stably expressing human Nav1.5, automated patch clamp QPatch16X
[5] = human Nav1.7, automated patch clamp
[6] = human Nav1.5, automated patch clamp

Sequence of human Nav1.5 (Q14524 whole entry): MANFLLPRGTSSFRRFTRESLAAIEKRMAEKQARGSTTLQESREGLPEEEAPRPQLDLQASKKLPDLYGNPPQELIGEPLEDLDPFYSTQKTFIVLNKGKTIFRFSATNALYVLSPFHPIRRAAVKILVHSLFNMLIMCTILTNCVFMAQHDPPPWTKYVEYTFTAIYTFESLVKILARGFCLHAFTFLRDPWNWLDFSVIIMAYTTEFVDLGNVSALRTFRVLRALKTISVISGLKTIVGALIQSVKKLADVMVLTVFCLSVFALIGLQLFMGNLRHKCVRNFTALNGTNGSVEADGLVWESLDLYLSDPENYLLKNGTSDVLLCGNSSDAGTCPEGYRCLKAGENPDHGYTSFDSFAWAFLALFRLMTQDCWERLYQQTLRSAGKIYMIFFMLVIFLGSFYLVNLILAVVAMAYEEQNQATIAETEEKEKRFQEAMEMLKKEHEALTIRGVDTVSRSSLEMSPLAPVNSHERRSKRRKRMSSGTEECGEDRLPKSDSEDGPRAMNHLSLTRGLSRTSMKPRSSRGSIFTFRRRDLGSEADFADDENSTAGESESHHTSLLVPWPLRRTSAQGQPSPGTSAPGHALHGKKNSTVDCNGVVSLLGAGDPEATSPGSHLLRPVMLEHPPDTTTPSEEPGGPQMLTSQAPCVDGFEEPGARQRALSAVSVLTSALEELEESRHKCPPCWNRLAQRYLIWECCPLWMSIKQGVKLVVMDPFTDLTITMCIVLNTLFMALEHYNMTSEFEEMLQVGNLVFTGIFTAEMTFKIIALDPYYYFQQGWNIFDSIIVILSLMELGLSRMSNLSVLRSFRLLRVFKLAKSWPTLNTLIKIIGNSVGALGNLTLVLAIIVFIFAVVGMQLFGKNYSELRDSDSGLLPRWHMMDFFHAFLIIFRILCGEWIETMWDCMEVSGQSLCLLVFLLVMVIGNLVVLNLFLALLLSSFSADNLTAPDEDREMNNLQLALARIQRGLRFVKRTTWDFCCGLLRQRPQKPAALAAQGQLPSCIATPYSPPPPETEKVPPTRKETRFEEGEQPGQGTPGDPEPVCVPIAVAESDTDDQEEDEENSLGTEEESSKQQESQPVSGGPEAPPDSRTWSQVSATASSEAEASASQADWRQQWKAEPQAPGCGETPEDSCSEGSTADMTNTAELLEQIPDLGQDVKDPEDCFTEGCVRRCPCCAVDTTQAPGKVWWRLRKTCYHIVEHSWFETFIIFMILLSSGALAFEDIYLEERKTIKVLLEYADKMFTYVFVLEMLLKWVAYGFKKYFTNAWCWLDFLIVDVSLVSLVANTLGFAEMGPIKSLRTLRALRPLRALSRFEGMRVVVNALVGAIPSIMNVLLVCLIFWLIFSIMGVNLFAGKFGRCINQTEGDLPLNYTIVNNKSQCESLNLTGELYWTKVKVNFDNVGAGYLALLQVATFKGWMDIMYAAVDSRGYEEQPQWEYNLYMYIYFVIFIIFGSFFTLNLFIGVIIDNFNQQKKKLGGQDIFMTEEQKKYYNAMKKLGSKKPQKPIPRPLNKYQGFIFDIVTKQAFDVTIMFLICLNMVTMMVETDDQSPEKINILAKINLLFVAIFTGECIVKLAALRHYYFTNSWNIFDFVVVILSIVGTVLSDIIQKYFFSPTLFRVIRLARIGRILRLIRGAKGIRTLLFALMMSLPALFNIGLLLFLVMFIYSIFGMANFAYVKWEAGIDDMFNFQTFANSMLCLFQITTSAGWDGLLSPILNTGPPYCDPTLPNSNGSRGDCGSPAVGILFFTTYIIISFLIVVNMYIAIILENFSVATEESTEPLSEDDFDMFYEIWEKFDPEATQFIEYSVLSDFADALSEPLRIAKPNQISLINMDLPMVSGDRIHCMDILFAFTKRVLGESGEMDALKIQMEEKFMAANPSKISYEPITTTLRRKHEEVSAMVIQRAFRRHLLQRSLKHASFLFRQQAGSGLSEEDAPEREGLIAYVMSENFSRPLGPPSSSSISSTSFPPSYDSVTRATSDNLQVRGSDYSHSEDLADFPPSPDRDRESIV
Sequence of human Nav1.7 (Q15858 whole entry): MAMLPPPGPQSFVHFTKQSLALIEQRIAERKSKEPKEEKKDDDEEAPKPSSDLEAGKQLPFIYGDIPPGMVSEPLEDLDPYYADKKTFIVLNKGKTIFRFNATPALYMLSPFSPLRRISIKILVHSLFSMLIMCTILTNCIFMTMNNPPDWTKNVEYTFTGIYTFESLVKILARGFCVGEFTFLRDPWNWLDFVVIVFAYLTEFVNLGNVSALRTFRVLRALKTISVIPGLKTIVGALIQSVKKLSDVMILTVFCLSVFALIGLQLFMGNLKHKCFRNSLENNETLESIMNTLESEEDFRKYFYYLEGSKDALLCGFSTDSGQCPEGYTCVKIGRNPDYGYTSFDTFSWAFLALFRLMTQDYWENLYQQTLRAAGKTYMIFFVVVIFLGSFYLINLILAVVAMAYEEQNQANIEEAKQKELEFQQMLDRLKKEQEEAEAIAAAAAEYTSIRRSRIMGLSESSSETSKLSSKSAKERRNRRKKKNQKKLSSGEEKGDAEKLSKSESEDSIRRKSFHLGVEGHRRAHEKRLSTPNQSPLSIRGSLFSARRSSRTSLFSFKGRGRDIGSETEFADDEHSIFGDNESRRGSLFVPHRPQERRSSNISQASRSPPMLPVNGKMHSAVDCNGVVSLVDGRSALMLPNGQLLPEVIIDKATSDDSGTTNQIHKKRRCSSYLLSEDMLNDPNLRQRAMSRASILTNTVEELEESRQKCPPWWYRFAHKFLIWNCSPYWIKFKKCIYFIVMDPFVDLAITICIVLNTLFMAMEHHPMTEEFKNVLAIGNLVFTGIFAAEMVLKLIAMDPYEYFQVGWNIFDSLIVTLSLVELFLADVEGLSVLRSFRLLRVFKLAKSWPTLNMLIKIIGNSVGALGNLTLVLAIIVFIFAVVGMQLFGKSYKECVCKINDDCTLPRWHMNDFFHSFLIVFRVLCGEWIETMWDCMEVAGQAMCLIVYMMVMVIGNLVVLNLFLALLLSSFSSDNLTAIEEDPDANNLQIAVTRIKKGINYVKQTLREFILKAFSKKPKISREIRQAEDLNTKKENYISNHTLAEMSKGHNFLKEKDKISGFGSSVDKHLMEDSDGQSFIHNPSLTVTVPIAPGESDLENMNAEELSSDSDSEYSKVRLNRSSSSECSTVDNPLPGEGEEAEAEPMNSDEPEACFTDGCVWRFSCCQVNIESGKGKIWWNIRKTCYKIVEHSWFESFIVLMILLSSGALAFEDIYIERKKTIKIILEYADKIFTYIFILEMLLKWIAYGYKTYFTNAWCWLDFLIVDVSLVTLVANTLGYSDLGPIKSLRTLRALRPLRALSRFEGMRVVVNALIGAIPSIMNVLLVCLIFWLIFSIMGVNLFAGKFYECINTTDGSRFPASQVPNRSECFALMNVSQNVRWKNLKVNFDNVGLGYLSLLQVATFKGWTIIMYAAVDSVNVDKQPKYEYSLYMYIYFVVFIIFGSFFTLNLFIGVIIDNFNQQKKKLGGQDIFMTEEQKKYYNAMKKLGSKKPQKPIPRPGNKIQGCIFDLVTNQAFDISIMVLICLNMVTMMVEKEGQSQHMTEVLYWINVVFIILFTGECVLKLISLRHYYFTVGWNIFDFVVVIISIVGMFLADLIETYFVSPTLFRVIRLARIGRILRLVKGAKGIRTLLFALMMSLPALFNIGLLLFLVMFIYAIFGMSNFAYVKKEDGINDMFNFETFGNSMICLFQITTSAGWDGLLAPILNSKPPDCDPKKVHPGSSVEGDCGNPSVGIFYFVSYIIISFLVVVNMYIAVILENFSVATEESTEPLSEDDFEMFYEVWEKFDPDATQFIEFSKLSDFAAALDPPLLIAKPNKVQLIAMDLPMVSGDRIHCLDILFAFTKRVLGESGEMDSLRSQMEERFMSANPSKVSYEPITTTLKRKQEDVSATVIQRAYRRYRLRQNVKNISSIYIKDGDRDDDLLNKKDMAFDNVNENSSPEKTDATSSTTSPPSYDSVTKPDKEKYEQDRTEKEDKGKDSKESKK
Sequence of human Nav1.7 (Q07699 19-218 partner): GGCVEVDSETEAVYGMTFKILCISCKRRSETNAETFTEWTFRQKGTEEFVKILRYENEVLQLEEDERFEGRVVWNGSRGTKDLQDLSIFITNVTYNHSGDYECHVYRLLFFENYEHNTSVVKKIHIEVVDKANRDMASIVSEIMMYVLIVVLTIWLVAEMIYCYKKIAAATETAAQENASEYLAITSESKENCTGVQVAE

SMILES | IC50 [1, 3] [nM] | IC50 [2, 4] [nM] | IC50 [1, 5] [nM] | IC50 [2, 6] [nM]
CCOCC1CCn2nc(C(=O)N[C@H]3COc4ccc(-c5ccccn5)cc4C3)cc2O1 (some centres unmarked) [Example 123] | < 10000 | ≥ 3000 |  | 
CC(C)(F)C1CCn2nc(C(=O)N[C@H]3COc4ccc(C#N)cc4C3)cc2O1 (single isomer, unassigned) [547 (isomer A)] |  |  | < 10000 | ≥ 3000
CCC1CCn2nc(C(=O)N[C@H]3COc4ccc(Cl)cc4C3)cc2O1 (some centres unmarked) [Example 90] | < 1000 | 1000 to 3000 |  | 
O=C(N[C@H]1COc2ccc(-c3ccccn3)cc2C1)c1cc2n(n1)CCC(COCC(F)(F)F)O2 (single isomer, unassigned) [131 (isomer B)] | < 10000 | ≥ 3000 |  | 
N#Cc1ccc2c(c1)C[C@@H](NC(=O)c1cc3n(n1)CCC(c1c(F)cccc1F)O3)CO2 (some centres unmarked) [Example 366] |  |  | < 1000 | 1000 to 3000
O=C(c1cn2c(n1)CCC(C1CCC(F)(F)CC1)C2)N1CCC1Cc1ccccc1 (centres unmarked) [Example 318] |  |  | < 10000 | ≥ 3000
O=C(N[C@H]1COc2ccc(C(F)(F)F)cc2C1)c1cc2n(n1)CCC(COCC(F)(F)F)O2 (some centres unmarked) [Example 432] |  |  | < 1000 | 1000 to 3000
O=C(N[C@H]1COc2ccccc2C1)c1nn2c(c1-c1ccccc1)CN(CC(F)(F)F)CC2 [Example 275] |  |  | < 1000 | 1000 to 3000
O=C(N[C@H]1COc2ccc(COCC(F)(F)F)cc2C1)c1cc2n(n1)CC(COCC(F)(F)F)O2 (single isomer, unassigned) [188 (isomer A)] |  |  | < 1000 | < 1000
O=C(N[C@H]1COc2ccc(CCOC(F)F)cc2C1)c1cc2n(n1)CCC(C(F)F)O2 (some centres unmarked) [Example 164] |  |  | < 1000 | ≥ 3000
N#Cc1ccc2c(c1)C[C@@H](NC(=O)c1cc3n(n1)CCCC(c1ccccc1)O3)CO2 (some centres unmarked) [Example 251] |  |  | < 1000 | ≥ 3000
O=C(N[C@H]1COc2ccc(CC(F)(F)F)cc2C1)c1nc2n(c1-c1ccccn1)CCOC2 [Example 343] |  |  | < 1000 | 1000 to 3000
COc1ncccc1C1CCn2nc(C(=O)N[C@H]3COc4ccc(C#N)cc4C3)cc2O1 (some centres unmarked) [Example 75] | < 1000 | ≥ 3000 |  | 
N#Cc1ccc2c(c1)C[C@@H](NC(=O)c1cc3n(n1)CC(CCCOC(F)(F)F)O3)CO2 (single isomer, unassigned) [247 (isomer A)] |  |  | < 1000 | 1000 to 3000
CN(C(=O)c1cn2c(n1)CCC(C(F)(F)F)C2)[C@H]1COc2ccc(Cl)cc2C1 (some centres unmarked) [Example 3] | < 1000 | 1000 to 3000 |  | 
CCC1CCc2nc(C(=O)N[C@H]3COc4ccccc4C3)cn2C1 (some centres unmarked) [Example 23] | < 10000 | ≥ 3000 |  | 
Cn1ccc(-c2ccc3c(c2)C[C@@H](NC(=O)c2cc4n(n2)CC(CCOCC(F)(F)F)O4)CO3)n1 (some centres unmarked) [Example 205] |  |  | < 10000 | ≥ 3000
N#Cc1ccc2c(c1)C[C@@H](NC(=O)c1cc3n(n1)CCC(C(F)(F)F)O3)CO2 (some centres unmarked) [Example 373] |  |  | < 10000 | ≥ 3000
O=C(N[C@H]1COc2ccc(C(F)F)cc2C1)c1cn2c(n1)CCC(C(F)(F)F)C2 (single isomer, unassigned) [7 (isomer A)] | < 1000 | 1000 to 3000 |  | 
O=C(N[C@H]1COc2ccc(C(F)(F)F)cc2C1)c1cc2n(n1)CCC(C#CC1CC1)O2 (some centres unmarked) [Example 402] |  |  | < 1000 | ≥ 3000
O=C(N[C@H]1COc2ccc(COCC(F)(F)F)cc2C1)c1cc2n(n1)CC(CCNCC(F)(F)F)O2 (some centres unmarked) [Example 231] |  |  | < 1000 | ≥ 3000
N#Cc1ccc2c(c1)C[C@@H](NC(=O)c1cc3n(n1)CC(CCOC(F)(F)F)O3)CO2 (some centres unmarked) [Example 208] |  |  | < 1000 | < 1000
O=C(N[C@H]1COc2ccccc2C1)c1cn2c(n1)CNC(c1cccc(C(F)(F)F)n1)C2 (some centres unmarked) [Example 46] | < 10000 | 1000 to 3000 |  | 
O=C(N[C@H]1COc2ccc(C(F)(F)F)cc2C1)c1nc2n(c1-c1ccccn1)CCCC2 [Example 305] |  |  | < 1000 | 1000 to 3000
O=C(c1cn2c(n1)CCC(c1cccc(OC3COC3)n1)C2)N1CCC(c2ccccc2)C1 (centres unmarked) [Example 313] |  |  | < 10000 | ≥ 3000
COc1ncc(-c2ccc3c(c2)C[C@@H](NC(=O)c2cc4n(n2)CC(CCOCC2CC2)O4)CO3)cn1 (mixture of isomers) [Example 203, 2-(2-(cyclopropylmethoxy)ethyl)-N—((R)-6-(2-methoxypyrimidin-5-yl)chroman-3-yl)-2,3-dihydropyrazolo[5,1-b]oxazole-6-carboxamide] |  |  | < 1000 | ≥ 3000

SMILES | IC50 [1, 3] [nM] | IC50 [2, 4] [nM] | IC50 [1, 5] [nM] | IC50 [2, 6] [nM]
O=C(N[C@H]1COc2ccc(Cl)cc2C1)c1cc2n(n1)CCN(CC(C(F)(F)F)C(F)(F)F)C2 [Example 493] |  |  | < 1000 | 1000 to 3000
O=C(N[C@H]1COc2ccc(COCC(F)(F)F)cc2C1)c1cc2n(n1)CCN(CCC(F)(F)F)C2 [Example 507] |  |  | < 1000 | ≥ 3000
O=C(N[C@H]1COc2ccc(CCOC(F)(F)F)cc2C1)c1cc2n(n1)CC(COC(F)F)O2 (some centres unmarked) [Example 462] |  |  | < 1000 | ≥ 3000
O=C(N[C@H]1COc2ccc(Cl)cc2C1)c1cc2n(n1)CCC(CN1CCC(F)(F)C1)O2 (single isomer, unassigned) [153 (isomer A)] |  |  | < 1000 | 1000 to 3000
O=C(NC1COc2cccc(Br)c2C1)c1cn2c(n1)CCC(C(F)(F)F)C2 (single isomer, unassigned) [9 (isomer B)] | < 1000 | ≥ 3000 |  | 
O=C(N[C@H]1COc2ccc(Cl)cc2C1)c1cc2n(n1)CCN(CCC(F)(F)F)C2 [Example 261] |  |  | < 1000 | < 1000
O=C(N[C@H]1COc2ccc(COc3ccccn3)cc2C1)c1cc2n(n1)CCC(C(F)(F)F)O2 (some centres unmarked) [Example 392] |  |  | < 1000 | 1000 to 3000
O=C(N[C@H]1COc2ccc(COCC(F)(F)F)cc2C1)c1cc2n(n1)CC(CCNCC(F)(F)F)O2 (single isomer, unassigned) [232 (isomer B)] |  |  | < 1000 | ≥ 3000
O=C(N[C@H]1COc2ccc(COCC(F)(F)F)cc2C1)c1cc2n(n1)CCC(C(F)F)O2 (single isomer, unassigned) [163 (isomer A)] |  |  | < 1000 | 1000 to 3000
O=C(N[C@H]1COc2ccc(Cl)cc2C1)c1cc2n(n1)CC(CNCC(F)(F)F)O2 (some centres unmarked) [Example 448] |  |  | < 1000 | 1000 to 3000
N#Cc1ccc2c(c1)C[C@@H](NC(=O)c1cc3n(n1)CCC(COC(F)(F)F)O3)CO2 (single isomer, unassigned) [134 (isomer B)] | < 10000 | ≥ 3000 |  | 
O=C(N[C@H]1COc2ccc(CCOC(F)F)cc2C1)c1cc2n(n1)CC(COCC(F)(F)F)O2 (some centres unmarked) [Example 189] |  |  | < 1000 | ≥ 3000
O=C(N[C@H]1COc2ccc(CC(F)F)cc2C1)c1cc2n(n1)CCC(COCC(F)(F)F)O2 (single isomer, unassigned) [127 (isomer A)] | < 1000 | ≥ 3000 |  | 
O=C(N[C@H]1COc2ccc(COCC(F)(F)F)cc2C1)c1nc2n(c1-c1ccn[nH]1)CCCC2 [Example 20] | < 1000 | < 1000 |  | 
O=C(N[C@H]1COc2cccc(Cl)c2C1)c1cc2n(n1)CCN(CCC(F)(F)F)C2 [Example 262] |  |  | < 10000 | ≥ 3000
CN1Cc2nc(C(=O)NCC(F)(F)c3cccc(C(F)(F)F)c3)cn2CC1c1ccccc1 (centres unmarked) [Example 331] |  |  | < 10000 | 1000 to 3000
O=C(N[C@H]1COc2ccc(COCC(F)(F)F)cc2C1)c1cc2n(n1)CCC(COCC(F)(F)F)O2 (single isomer, unassigned) [129 (isomer B)] | < 1000 | 1000 to 3000 |  | 
O=C(N[C@H]1COc2ccc(-c3ccccn3)cc2C1)c1cc2n(n1)CCC(C(F)(F)F)O2 (some centres unmarked) [Example 382] |  |  | < 10000 | ≥ 3000
O=C(N[C@H]1COc2ccccc2C1)c1nc2n(c1-c1ccccc1)CCCC2 [Example 16] | < 1000 | < 1000 |  | 
O=C(N[C@H]1COc2ccc(-c3ccccn3)cc2C1)c1cc2n(n1)CCC(c1ccccc1F)O2 (some centres unmarked) [Example 81] | < 1000 | ≥ 3000 |  | 
N#Cc1ccc2c(c1)C[C@@H](NC(=O)c1cc3n(n1)CCC(CCOC(F)F)O3)CO2 (some centres unmarked) [Example 145] |  |  | < 1000 | ≥ 3000
O=C(N[C@H]1COc2ccccc2C1)c1nc2n(c1I)CC(C(F)(F)F)CC2 (stereo partly drawn) [Example 14, N—((R)-chroman-3-yl)-3-iodo-6-(trifluoromethyl)-5,6,7,8-tetrahydroimidazo[1,2-a]pyridine-2-carboxamide] | < 10000 | ≥ 3000 |  | 
O=C(N[C@H]1COc2ccc(C(F)(F)F)cc2C1F)c1cc2n(n1)CC[C@H](C(F)F)O2 (single isomer, unassigned; isomer a) [579(isomer A)] |  |  | < 1000 | 1000 to 3000
N#Cc1ccc2c(c1)C[C@@H](NC(=O)c1cc3n(n1)CC(CCOCC1CC1)O3)CO2 (single isomer, unassigned) [202 (isomer B)] |  |  | < 1000 | < 1000
O=C(N[C@H]1COc2ccc(Cl)cc2C1)c1cc2n(n1)CCC(C(F)(F)F)O2 (single isomer, unassigned) [170 (isomer A)] |  |  | < 1000 | 1000 to 3000
COc1ncc(C(F)(F)F)cc1C1CCc2nc(C(=O)N3CCC(c4ccccc4)C3)cn2C1 (centres unmarked) [Example 316] |  |  | < 10000 | 1000 to 3000
